A short description of this series: Qualitative solubility of diester-diacid monomers in organic solvents.
Take `CCCCC(CC)COC(=O)c1ccc2c3ccc(C(=O)O)c4c(C(=O)OCC(CC)CCCC)ccc(c5ccc(C(=O)O)c1c52)c43` (stereo not drawn) [Monomer 2d, di-2-ethy hexyl ester of perylene-3,4,9,10 tetracarboxylic acid]: the “Solubility of monomer or dianhydride, in words” value (shortened to “Solubility”) was “soluble in polar aprotic solvents like NMP, and DMSO”.

With di-methyl ester of NTDA [Monomer 1a], the “Solubility” value is on record as “soluble in most of the organic solvents”.

As for `CCCCCCOC(=O)c1ccc2c3ccc(C(=O)O)c4c(C(=O)OCCCCCC)ccc(c5ccc(C(=O)O)c1c52)c43` [Monomer 2c, di-N-hexyl ester of perylene-3,4,9,10 tetracarboxylic acid], the “Solubility” value was “soluble in polar aprotic solvents like NMP, and DMSO”.

On to `O=C1OC(=O)c2ccc3c4ccc5c6c(ccc(c7ccc1c2c73)c64)C(=O)OC5=O` [PTDA, 3,4,9,10-perylenetetracarboxylic dianhydride], for which the “Solubility” value is recorded as “insoluble in all solvents”.

In the case of di-hexyl ester of NTDA [Monomer 1c], the “Solubility” value is reported as “soluble in most of the organic solvents”.

With di-ethyl ester of NTDA [Monomer 1b], the “Solubility” value is recorded as “soluble in most of the organic solvents”.

The values above are taken from patent US9355787B2, “Method of forming rigid imide material from soluble amide ester functionalized precursors” (Colorado School of Mines, priority 2013, dated 2016).
